We go through two molecules from patent US6358293B1, “Methods for rendering high concentrations of manganese safe for plant growth and formulations for same” (The Hampshire Chemical Corporation, priority 1999, dated 2002).

Series [1] deals with Geranium. Description: Growth promotion versus conventionally cultured and single-additive controls. Format: in vivo.
For series [2], the system named is Coleus. The series is described as above. The series is classed as in vivo.
In series [3] the test system is New Guinea Impatiens. The description is as above. Format: in vivo.
For series [4], the system named is Cabbage. Description: Effective root application doses. The series is classed as in vivo. Conditions: 10 ml per plant. As to the method: (§1) The following are exemplary ranges of effective root application doses based on 10 ml per plant.
Series [5] relates to Coleus. Description: Effective root application doses. Conditions: 10 ml per plant. Format: in vivo. The procedure: as §1
In series [6] the test system is Geranium. The series is described as follows: Effective root application doses. Format: in vivo. Conditions: 10 ml per plant. The procedure:
as §1

Series [7] deals with Corn. Description: Effective foliar application doses. Format: in vivo. The note with it: 1 to 4 ml per plant. The procedure: (§2) The following are exemplary ranges of effective foliar application doses based on 1 to 4 ml per plant.
For series [8], the system named is New Guinea Impatiens. The series is described as follows: Effective foliar application doses. Format: in vivo. The note with it: 1 to 4 ml per plant. As to the method: as §2
For series [9], the system named is plants. The note with it: conventional conditions of plant culture, especially under acidic conditions; cited from earlier work.

Each structure is given as a SMILES string.

`CO[C@H]1OC(CO)[C@H](O)[C@@H](O)[C@@H]1O` (some centres unmarked) [MeG, methyl glucoside]: the “effect of additive on plant growth” value in series [1], in series [2] and in [3] was “retarded growth” each time. The results for the “effective root application dose, MeG” value in [4] (MeG applied with Mn), in series [5] (MeG applied with Mn) and in series [6] (MeG applied with Mn) were 10 to 30 mM, 5 to 50 mM and 10 to 100 mM, respectively. Besides, the entries for the “effective foliar application dose, MeG” value in series [7] (MeG applied with Mn) and in series [8] (MeG applied with Mn) were 5 to 25 mM and 200 to 500 mM, respectively.
Consider `[Mn+2]` [Mn, manganese], for which the “effect of additive on plant growth” value in series [1], in [2] and in series [3] was “phytotoxic” each time. Besides, the results for the “effective root application dose, Mn” value in series [4] (Mn applied with MeG), in [5] (Mn applied with MeG) and in series [6] (Mn applied with MeG) were 2 to 15 ppm, 2 to 7 ppm and 2 to 15 ppm, respectively. The “effective foliar application dose, Mn” value in series [7] (Mn applied with MeG) and in series [8] (Mn applied with MeG) was 10 to 25 ppm throughout. The “concentration at which manganese is phytotoxic to plants” value in [9] is “greater than 500 ppb”.
